# Positions of bridges follow the written chain, without caps; N, C: chain ends. Non-standard residues stand in square brackets, D forms with d. Residues, ends and D or L forms follow the SMILES beside them. dCha = N[C@H](CC1CCCCC1)C(=O)O
# Columns and labels:
# MRSA ATCC 33591 = test: Time-kill kinetics; assay type: cell-based, Staphylococcus aureus; conditions: 2.5 μg/mL (10× MIC), MHB with 0.002% polysorbate 80, 37 °C, two independent experiments in duplicate
# Description: Early-stage time-kill kinetics for analogue 12 against MRSA ATCC 33591 were performed using vancomycin as a control, following the protocol described in Section VIII, Supporting Information.
# 3 Time-kill kinetics of Novltex analogue 12 and clinical antibiotic (vancomycin) against MRSA 33591. […] Results are the mean ± SD of two independent experiments performed in duplicate.
# MICs were performed as previously reported 4. For MIC testing all peptides were dissolved in DMSO.
# Bacterial cultures were grown overnight on Mueller-Hinton Agar (MHA) plates and adjusted to a final inoculum of 10^5 – 10^6 CFU/mL. 100 µl of ino culum in Meuller -Hinton broth (MHB) was mixed with equal volume of peptides (dissolved in MHB) at 2x their concentration in a 96 well plate . For daptomycin MIC determination, the same protocol was followed with the addition of 50 mg/L calcium chloride to the medium. MIC values were determined in the media contain ing polysorbate 80 (0.002%, v/v) to prevent non -specific adsorption of the peptides to plastic surfaces. The final peptides concentrations ranged from 0.0625 – 32 µg/mL. The 96 well plates were then incubated at 37 °C for 24 h. All the experiments were performed in two independent duplicates and the MIC was determined as the lowest concentration in which no visible growth was observed.
# Antibiotics MIC break points ( µg/mL)
# Table. […]
# [1] = tested on: human red blood cells (RBCs); test: Hemolysis assay; assay type: cell-based; conditions: 1 h, 37 °C, PBS pH 7.0, absorbance 576 nm, 4 donors in duplicate
# Description: 4 Cytotoxicity evaluation of analogue 12. Human primary dermal fibroblasts (A), liver cell line HepG2 (B), and kidney cell line HEK293T (C) cells (5 × 10^3 cells/well in 96-well plates) were treated with increasing concentrations of analogue 12 or 1 μM staurosporine (STS, used as a positive toxicity control) for 24 or 48 h, as indicated. Viability of cells was determined using an MTS-based assay. Results (% cell viability) are the mean ± SD of three independent experiments performed in triplicate. (D) Freshly collected human red blood cells (RBCs) were exposed to increasing concentrations of 12 or Triton X-100 (TX), as indicated, for 1 h. Hemolytic activity (% hemolysis) was determined by spectrophotometrically measuring the release of hemoglobin compared to that with TX (used as a positive control). […]
# day, cells were treated in triplicates with increasing concentrations of Novltex analogue 12, as indicated in the corresponding figure and the figure legend (Figure 4A-C). […] Cell viability assessed after 24 h or 48 h incubation using an MTS-based CellTiter 96® AQueous One Solution Cell Proliferation Assay (Promega #G3582, Southampton UK) as per manufacturer’s instructions. Absorbance was recorded at 490 nm. Relative cell viability was determined by subtracting the blank (cell culture medium and MTS only) from individual values before normalizing against the untreated control. […]
structure (smiles),measurement,setting,value
"CC(C)C[C@@H]1NC(=O)[C@H](C)NC(=O)[C@H](NC(=O)[C@H](CO)NC(=O)[C@@H](CCCCN)NC(=O)[C@@H](CC2CCCCC2)NC(=O)[C@@H](N)Cc2ccccc2)[C@H](C)OC(=O)[C@H](CC(C)C)NC1=O [analogue 12, Leu2Cha–Novltex] (H-F[dCha][dK]S[dT]ALL; ester 5-C)",time to significant bacterial killing,MRSA ATCC 33591,≤ 6 h
same,hemolysis of human erythrocytes,[1]; 62.5 μg/mL (125× MIC),low hemolysis
same,hemolysis of human erythrocytes,[1]; concentrations up to 31.2 μg/mL,no detectable hemolysis
